Data from US20260306492A1 (BRISTOL-MYERS SQUIBB COMPANY, priority 2023, published 2026).
Like-named read-outs stand apart in the source and are kept apart here. Blank lines part the entries; values can stand above or below the molecule they belong to.

Columns and labels:
[1] = system: participants with non-lacunar, non-cardioembolic ischemic stroke or TIA; test: AXIOMATIC-SSP Phase 2, efficacy (ischemic stroke / covert brain infarction); format: in vivo, human
[2] = Thorough QT (TQT) study in healthy adults; format: in vivo, human; details: for ΔΔQTcF, highest upper limit of 2-sided 90% CI: Day 1 and Day 4
Procedure: Pharmacokinetic analysis was performed on the plasma concentrations of each participant.

[3] = system: thrombin generation; test: Thrombin Generation Assay (TGA), AXIOMATIC-TKR Phase II; format: in vivo, human; details: for ETP Lag Time, measured value, median / ETP Peak Height, measured value, mean / ETP Lag Time, measured value, mean / ETP Peak Height, measured value, median: enoxaparin 40 mg QD sc
Description: As used herein, “Thrombin Generation Assay (TGA)” is a global coagulation assay that evaluates the thrombogenic capacity of a plasma sample and has been proposed that it may better reflect prothrombotic or hemorrhagic states than conventional clotting assays. In the traditional TGA, coagulation of citrated plasma is initiated through the extrinsic pathway by adding tissue factor, phospholipids, and calcium. For this study, in the in-vitro thrombin generation assay (TGA) using human platelet-rich plasma, and a kaolin slurry was used instead to initiate coagulation through the contact activation pathway. Thrombin generation is continuously monitored through the product released by cleavage of a thrombin-specific fluorogenic substrate. The generated thrombogram is used to determine several relevant parameters, including endogenous thrombin potential, defined as the area under the thrombin concentration vs. time curve. […]
(§1) PD analyses were performed on the PD analysis set, defined as subjects who had at least one valid blood sample drawn for PD. Descriptive statistics (N, mean, SD, median, range, CV (%) and IQ range) were used to summarize PD response at each nominal sampling time point by treatment group. Changes from baseline were summarized when applicable. PD response outside of limit of quantitation were not to be imputed and were to be noted in the summary statistics.

[4] = Milvexian pharmacokinetics in humans (healthy volunteers / terminal half-life)
Description: (AXIOMATIC-TKR Phase II). […] “Half-life (t1/2),” as used herein, refers to apparent terminal elimination half-life having a mean value calculated using formula t1/2=loge2/λz, where λz is the apparent terminal elimination rate-constant estimated by linear regression using the terminal log-linear phase of the logarithmic (log) transformed concentration vs time data.

[5] = Milvexian clinical program, adverse drug reactions; format: in vivo, human; details: milvexian clinical development program
Description: […]. […] […]. Milvexian in the two Phase II clinical trials (AXIOMATIC-TKR and AXIOMATIC-SSP) focused on different patient populations.

[6] = system: participants with non-lacunar, non-cardioembolic ischemic stroke or TIA; test: AXIOMATIC-SSP Phase 2, safety (bleeding, adverse events)
[7] = Milvexian plasma pharmacokinetics, AXIOMATIC-TKR Phase II
Description: (AXIOMATIC-TKR Phase II). […] Assessment of the dose-response for the occurrence of any bleeding was a secondary objective.

[8] = system: intrinsic and final common pathways of the coagulation cascade (aPTT); test: Activated partial thromboplastin time (aPTT), AXIOMATIC-TKR Phase II; format: in vivo, human; details: for aPTT, measured value, median: enoxaparin 40 mg QD sc
Description: As used herein, the term “activated partial thromboplastin time (aPTT)” refers to a measure of the intrinsic and final common pathways of the coagulation cascade. It represents the time, in seconds, for plasma to clot after addition of phospholipid, an intrinsic pathway activator, and calcium. […] The term ‘partial’ means phospholipid is present but no tissue factor. The normal and reference ranges vary depending on reagent and instrument combinations, particularly with the phospholipid composition.
In some embodiments, aPTT is measured as follows: Plasma samples are incubated with Actin FS aPTT assay reagent containing a standard amount of phospholipid and contact activator (ellagic acid) which activates the intrinsic coagulation pathway. After incubating for 3 minutes, calcium chloride is added to initiate coagulation and formation of a fibrin clot is measured optically. The time to clot formation (measured in seconds) is reported as the Activated Partial Thromboplastin Time (aPTT).
(§2) Assessment of the dose-response for the occurrence of any bleeding was a secondary objective.
as §1

[9] = Bleeding in AXIOMATIC-TKR and AXIOMATIC-SSP; format: in vivo, human
Description: […]. […] […]. […] […].

[10] = Steady-state plasma pharmacokinetics of milvexian 100 mg BID
[11] = system: participants undergoing primary unilateral elective TKR surgery; test: Total venous thromboembolism (VTE) in TKR patients, AXIOMATIC-TKR; format: in vivo, human
[12] = cited from earlier work; for VTE prevention versus enoxaparin 40 mg once daily: orthopedic surgery, historical Phase 3; for bleeding: Phase 2 orthopedic surgery studies and with antiplatelets after an ACS
[13] = target: T1, Factor XI (Homo sapiens, UniProt P03951); test: FXI clotting activity (FXI:c), AXIOMATIC-TKR Phase II; format: in vivo; details: enoxaparin 40 mg QD sc
T1 construct: aPTT one-stage clotting with FXI-deficient plasma
T1 sequence (P03951 19-625): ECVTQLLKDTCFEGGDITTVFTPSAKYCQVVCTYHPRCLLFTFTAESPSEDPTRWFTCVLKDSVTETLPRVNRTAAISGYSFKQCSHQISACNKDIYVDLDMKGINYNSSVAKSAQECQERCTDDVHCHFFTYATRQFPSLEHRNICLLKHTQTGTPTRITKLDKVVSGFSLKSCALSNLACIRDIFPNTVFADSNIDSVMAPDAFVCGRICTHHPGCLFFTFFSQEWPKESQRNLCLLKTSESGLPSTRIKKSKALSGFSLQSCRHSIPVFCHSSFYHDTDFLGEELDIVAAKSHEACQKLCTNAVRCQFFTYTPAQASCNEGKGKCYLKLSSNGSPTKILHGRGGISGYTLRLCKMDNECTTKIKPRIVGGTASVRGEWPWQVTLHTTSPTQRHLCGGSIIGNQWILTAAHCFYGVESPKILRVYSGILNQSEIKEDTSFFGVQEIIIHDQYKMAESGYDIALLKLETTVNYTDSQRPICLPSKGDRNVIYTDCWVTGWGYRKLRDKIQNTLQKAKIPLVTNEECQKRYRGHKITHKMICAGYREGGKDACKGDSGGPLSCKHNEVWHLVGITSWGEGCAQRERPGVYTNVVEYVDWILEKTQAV
Procedure: As used herein, “Factor XI Clotting Activity” is determined utilizing an aPTT-based 1-stage clotting time assay. Serial dilutions of normal pooled plasma are mixed with FXI-depleted plasma and the clotting times are measured according to standard aPTT protocol, to establish a reference range. Subject test plasma is treated in the same way and compared with the reference plasma.
In some embodiments, the Factor XI Clotting Activity is measured as follows: Factor XI (FXI) activity is measured using a modification of the activated partial thromboplastin time (aPTT) using Actin FS (Siemens Healthcare) on the Siemens BCS®XP analyzer. […] The reference standard, at approximately 100%, is diluted by the BCS®XP analyzer in saline to generate pre-selected calibration levels of FXI. The calibration curve is plotted with FXI activity in percent (%) on the x-axis and clotting time in seconds on the y-axis. A log/lin regression curve fit is used. […] APTT reagent (Actin FS) is added and the mixture is incubated. Following incubation, calcium chloride is added to the mixture and the time to clot formation (measured optically) is compared to the time on the calibration curve. Samples are tested at the base dilution (1:10) prepared by the BCS®XP in saline.
as §2, §1

[14] = 100 mg BID on top of standard care antiplatelet therapy

Molecule: C[C@@H]1CCC[C@H](n2cnc(-c3cc(Cl)ccc3-n3cc(Cl)nn3)cc2=O)c2cc(ccn2)-c2c(cnn2C(F)F)NC1=O [Milvexian, (5R,9S)-9-(4-(5-chloro-2-(4-chloro-1H-1,2,3-triazol-1-yl)phenyl)-6-oxopyrimidin-1 (6H)-yl)-2^1-(difluoromethyl)-5-methyl-2^1H-3-aza-1 (4,2)-pyridina-2 (5,4)-pyrazolacyclonaphan-4-one]
dose-response for primary composite efficacy endpoint ([1]; 25 mg QD to 200 mg BID, symptomatic ischaemic stroke and incident covert brain infarction): no significant dose-response
symptomatic ischaemic strokes ([1]; all doses except 200 mg BID, pre-specified secondary analysis): numerically fewer symptomatic ischaemic strokes
incident covert brain infarcts versus placebo ([1]; milvexian doses): no effect compared to placebo
ΔΔQTcF, highest upper limit of 2-sided 90% CI ([2]; 100 mg milvexian): 5.16 ms
ΔΔQTcF at milvexian Tmax, upper limit of 90% CI ([2]; 100 mg twice daily): below 10 ms
ΔΔQTcF, highest upper limit of 2-sided 90% CI ([2]; 200 mg milvexian): 4.57 ms
ΔΔQTcF at milvexian Tmax, upper limit of 90% CI ([2]; 200 mg twice daily): below 10 ms
safety and tolerability ([2]; multiple doses of 100 and 200 mg, healthy adults): generally safe and well tolerated
QT/QTc interval prolongation ([2]; therapeutic (100 mg) and supratherapeutic (200 mg) doses): does not show evidence of QT/QTc interval prolongation of clinical or regulatory concern
lag time dose dependence ([3]; 25-200 mg QD/BID): dose related prolongation in the lag time
peak thrombin and area under the curve (total thrombin generation) ([3]; 25-200 mg QD/BID): dose related reductions in peak thrombin and area under the curve
peak thrombin generation dose dependence ([3]; 25-200 mg QD/BID): clear and robust dose dependent reduction in peak thrombin generation
median Tmax ([4]; healthy volunteers, twice daily): approximately 3 hours
terminal plasma half-life (T1/2) ([4]; human, oral): 13 to 16 h
serious bleeding assessed as adverse drug reactions [5]: gastrointestinal bleeding, procedural hemorrhage, nervous system disorder bleeding (hemorrhagic transformation of ischemic stroke and subdural hematoma) and hematuria
rate of major bleeding versus placebo ([6]; 25 mg once daily and twice daily): the same as for placebo
major bleeding (BARC Type 3/5) ([6]; 50 mg twice daily and above): Moderate increases in major bleeding
renal serious and non-serious adverse events leading to discontinuation ([6]; 200 mg twice daily): higher rate
study drug discontinuations for adverse events ([6]; 200 mg twice daily): highest rate of study drug discontinuations for adverse events
ISTH major and CRNM bleeding, and all bleeding ([6]; all milvexian doses): increases in ISTH major and CRNM bleeding (mainly driven by CRNM), as well as all bleeding
intracranial haemorrhage or symptomatic haemorrhagic transformation of brain infarction (modified BARC type 3c) versus placebo ([6]; all milvexian doses): no increase
fatal bleeding (BARC type 5) ([6]; in the study): no fatal bleeding
dose-response for major bleeding ([6]; main composite safety endpoint): no significant dose-response
incidence of major bleeding ([6]; trial population): 1-2%
Tmax ([7]; Day 4, 25 mg twice daily): approximately 2 hours
Tmax ([7]; Day 4, 50 mg once daily): approximately 4 hours
Tmax ([7]; human, in vivo, po, 100 mg): ~2 h
Tmax ([7]; human, in vivo, po, 200 mg): ~4 h
observed concentration, Day 4 12 hours after dosing ([7]; in vivo): higher
observed concentration, Day 7 12 hours after dosing ([7]; in vivo): lower
time to steady state of mean trough plasma concentrations ([7]; in vivo): approximately 4 Day
aPTT dose dependence ([8]; 25-200 mg QD/BID): dose related increase in aPTT
fatal bleeding ([9]; AXIOMATIC-TKR / AXIOMATIC-SSP): No fatal bleeding
symptomatic intracranial hemorrhage ([9]; AXIOMATIC-TKR / AXIOMATIC-SSP): no increases in symptomatic intracranial hemorrhage
dose-response for bleeding events ([9]; AXIOMATIC-TKR and AXIOMATIC-SSP): No dose-response relationship
steady state Cmax, mean (std) ([10]; 100 mg BID as monotherapy): 1760 (566) ng/ml
steady state AUC0-24, mean (std) ([10]; 100 mg BID as monotherapy): 36200 (12900) ng*h/mL
steady state Cmax, mean (std) [10, 14]: 1670 (536) ng/mL
steady state AUC0-24, mean (std) [10, 14]: 35000 (12100) ng*h/mL
VTE reduction versus enoxaparin ([11]; 50 mg twice daily): superior to enoxaparin
VTE prevention versus enoxaparin 40 mg once daily ([11]; 50-200 mg twice daily): superior to enoxaparin 40 mg once daily
reduction in total VTE versus enoxaparin ([11]; each total daily dose regimen ≥100 mg): statistically significant reductions in total VTE compared to enoxaparin

Molecule: COc1ccc(-n2nc(C(N)=O)c3c2C(=O)N(c2ccc(N4CCCCC4=O)cc2)CC3)cc1 [apixaban]
VTE prevention versus enoxaparin 40 mg once daily ([12]; 2.5 mg twice daily): superior to enoxaparin 40 mg once daily
bleeding [12]: dose-related bleeding

Molecule: COc1c(N2C[C@@H]3CCCN[C@@H]3C2)c(F)cc2c(=O)c(C(=O)O)cn(C3CC3)c12 [moxifloxacin]
assay sensitivity (positive control) ([2]; single 400 mg dose): demonstrated
participants with treatment-emergent change from baseline of QTcB>60 ms ([2]; single 400 mg dose, one participant): 1.7%

Molecule: O=C(NC[C@H]1CN(c2ccc(N3CCOCC3=O)cc2)C(=O)O1)c1ccc(Cl)s1 [rivaroxaban]
VTE prevention versus enoxaparin 40 mg once daily ([12]; 10 mg once daily): superior to enoxaparin 40 mg once daily
bleeding [12]: dose-related bleeding

FXI:c, % change from baseline, mean ([13]; Day 1 4 h): −7.24%
FXI:c, % change from baseline, median ([13]; Day 1 4 h): −7.24%
FXI:c, measured value, mean ([13]; Day 1 4 h): 1.06
FXI:c, measured value, median ([13]; Day 1 4 h): 1.07
FXI:c, % change from baseline, mean ([13]; Day 10-14): 36.64%
FXI:c, % change from baseline, median ([13]; Day 10-14): 37.21%
FXI:c, measured value, mean ([13]; Day 10-14): 1.36
FXI:c, measured value, median ([13]; Day 10-14): 1.39
Molecule: enoxaparin
ETP Lag Time, measured value, median ([3]; Day 1 2 h): 7.02 min
ETP Peak Height, measured value, mean ([3]; Day 1 2 h): 171.15 nmol/L
ETP Lag Time, measured value, mean ([3]; Day 1 4 h): 8.39 min
ETP Lag Time, measured value, median ([3]; Day 1 4 h): 6.83 min
ETP Peak Height, measured value, mean ([3]; Day 1 4 h): 183.54 nmol/L
ETP Peak Height, measured value, median ([3]; Day 1 4 h): 160.49 nmol/L
ETP Lag Time, measured value, mean ([3]; Day 2 Predose): 6.98 min
ETP Lag Time, measured value, median ([3]; Day 2 Predose): 5.7 min
ETP Peak Height, measured value, mean ([3]; Day 2 Predose): 232.14 nmol/L
ETP Peak Height, measured value, median ([3]; Day 2 Predose): 214.37 nmol/L
ETP Lag Time, measured value, mean ([3]; Day 4 4 h): 8.16 min
ETP Lag Time, measured value, median ([3]; Day 4 4 h): 7.44 min
ETP Peak Height, measured value, mean ([3]; Day 4 4 h): 210.21 nmol/L
ETP Peak Height, measured value, median ([3]; Day 4 4 h): 196.02 nmol/L
ETP Lag Time, measured value, mean ([3]; Day 4 Predose): 7.44 min
ETP Lag Time, measured value, median ([3]; Day 4 Predose): 5.96 min
ETP Peak Height, measured value, mean ([3]; Day 4 Predose): 250.47 nmol/L
ETP Peak Height, measured value, median ([3]; Day 4 Predose): 227.87 nmol/L
ETP Lag Time, measured value, mean ([3]; Day 10-14): 11.18 min
ETP Lag Time, measured value, median ([3]; Day 10-14): 8.11 min
ETP Peak Height, measured value, mean ([3]; Day 10-14): 213.56 nmol/L
ETP Peak Height, measured value, median ([3]; Day 10-14): 201.82 nmol/L
aPTT, measured value, median ([8]; Day 1 2 h): 27.5 s
aPTT, measured value, median ([8]; Day 1 4 h): 27.75 s
aPTT, measured value, median ([8]; Day 2 Predose): 27.4 s
aPTT, measured value, median ([8]; Day 4 4 h): 26.1 s
aPTT, measured value, median ([8]; Day 4 Predose): 25.8 s
aPTT, measured value, median ([8]; Day 10-14): 25.9 s
total VTE rate ([11]; enoxaparin 40 mg once daily): 21.4%
